# In patent US20240358727A1, “MICROSCALE THERMOPHORESIS TO EVALUATE CHANNEL LIPID INTERACTIONS AND METHODS OF TREATING NAV CHANNELS RELATED DISEASES” (Northeastern University, priority 2023, published 2024):
# Where “and” joins values, the source holds several entries; their conditions need not be identical. Equal values may be shown once.
# How the values were obtained:
# free GFP = target: T1, free GFP (Aequorea victoria, UniProt P42212); test: MST binding of diC8-PIP2 to free GFP (negative control)
# T1 construct: expressed in transfected cells; host or cells: cell lysate
# Method: (§1) The method utilizes cell lysates obtained from transfected/infected cells that are lysed and incubated with varying concentrations of a water-soluble analogue of PIP2 commercially available as diC8-PI(4,5)P2, in a 384 well plate. Other phosphoinositides such as diC8PI(4)P of diC8PI(5)P can also be utilized. After a brief incubation (10-30 mins) samples are loaded onto capillary chips purchased from the company Nanotemper. Samples are run on the Nanotemper Monolith instrument. This instrument is advertised to detect green fluorescent protein (GFP) tagged proteins, however we have also used TFP (teal FP) tagged proteins. The instrument provides a short infra-red laser pulse which produces a short thermal gradient. Protein that is interacting with the lipid migrates differently through this thermal gradient and its movement is evaluated by the fluorescence of the GFP/TFP tag on the protein. Based on the concentration of the dic8-phosphoinositide, this resolves into a sigmoidal relationship that delivers an apparent affinity (Kd) value. A test ligand can be added to this assay at a known concentration that is at or close to its Kd for the channel. A shift in the channel's affinity for PIP2 in this assay can help indicate whether this test compound is a good drug candidate for further biological experiments.
# Results. […]
# Nav1.5-R1644C = target: T2, Nav1.5-R1644C (Homo sapiens, UniProt Q14524, R1644C); test: MST binding of diC8-PIP2 to GFP-Nav1.5-R1644C in cell lysate; conditions: for affinity (Kd) of Nav1.5-R1644C relative to WT, fold lower: R1644C vs WT
# T2 construct: expressed in transfected cells; host or cells: HEK293T
# T2 sequence (Q14524 whole entry R1644C): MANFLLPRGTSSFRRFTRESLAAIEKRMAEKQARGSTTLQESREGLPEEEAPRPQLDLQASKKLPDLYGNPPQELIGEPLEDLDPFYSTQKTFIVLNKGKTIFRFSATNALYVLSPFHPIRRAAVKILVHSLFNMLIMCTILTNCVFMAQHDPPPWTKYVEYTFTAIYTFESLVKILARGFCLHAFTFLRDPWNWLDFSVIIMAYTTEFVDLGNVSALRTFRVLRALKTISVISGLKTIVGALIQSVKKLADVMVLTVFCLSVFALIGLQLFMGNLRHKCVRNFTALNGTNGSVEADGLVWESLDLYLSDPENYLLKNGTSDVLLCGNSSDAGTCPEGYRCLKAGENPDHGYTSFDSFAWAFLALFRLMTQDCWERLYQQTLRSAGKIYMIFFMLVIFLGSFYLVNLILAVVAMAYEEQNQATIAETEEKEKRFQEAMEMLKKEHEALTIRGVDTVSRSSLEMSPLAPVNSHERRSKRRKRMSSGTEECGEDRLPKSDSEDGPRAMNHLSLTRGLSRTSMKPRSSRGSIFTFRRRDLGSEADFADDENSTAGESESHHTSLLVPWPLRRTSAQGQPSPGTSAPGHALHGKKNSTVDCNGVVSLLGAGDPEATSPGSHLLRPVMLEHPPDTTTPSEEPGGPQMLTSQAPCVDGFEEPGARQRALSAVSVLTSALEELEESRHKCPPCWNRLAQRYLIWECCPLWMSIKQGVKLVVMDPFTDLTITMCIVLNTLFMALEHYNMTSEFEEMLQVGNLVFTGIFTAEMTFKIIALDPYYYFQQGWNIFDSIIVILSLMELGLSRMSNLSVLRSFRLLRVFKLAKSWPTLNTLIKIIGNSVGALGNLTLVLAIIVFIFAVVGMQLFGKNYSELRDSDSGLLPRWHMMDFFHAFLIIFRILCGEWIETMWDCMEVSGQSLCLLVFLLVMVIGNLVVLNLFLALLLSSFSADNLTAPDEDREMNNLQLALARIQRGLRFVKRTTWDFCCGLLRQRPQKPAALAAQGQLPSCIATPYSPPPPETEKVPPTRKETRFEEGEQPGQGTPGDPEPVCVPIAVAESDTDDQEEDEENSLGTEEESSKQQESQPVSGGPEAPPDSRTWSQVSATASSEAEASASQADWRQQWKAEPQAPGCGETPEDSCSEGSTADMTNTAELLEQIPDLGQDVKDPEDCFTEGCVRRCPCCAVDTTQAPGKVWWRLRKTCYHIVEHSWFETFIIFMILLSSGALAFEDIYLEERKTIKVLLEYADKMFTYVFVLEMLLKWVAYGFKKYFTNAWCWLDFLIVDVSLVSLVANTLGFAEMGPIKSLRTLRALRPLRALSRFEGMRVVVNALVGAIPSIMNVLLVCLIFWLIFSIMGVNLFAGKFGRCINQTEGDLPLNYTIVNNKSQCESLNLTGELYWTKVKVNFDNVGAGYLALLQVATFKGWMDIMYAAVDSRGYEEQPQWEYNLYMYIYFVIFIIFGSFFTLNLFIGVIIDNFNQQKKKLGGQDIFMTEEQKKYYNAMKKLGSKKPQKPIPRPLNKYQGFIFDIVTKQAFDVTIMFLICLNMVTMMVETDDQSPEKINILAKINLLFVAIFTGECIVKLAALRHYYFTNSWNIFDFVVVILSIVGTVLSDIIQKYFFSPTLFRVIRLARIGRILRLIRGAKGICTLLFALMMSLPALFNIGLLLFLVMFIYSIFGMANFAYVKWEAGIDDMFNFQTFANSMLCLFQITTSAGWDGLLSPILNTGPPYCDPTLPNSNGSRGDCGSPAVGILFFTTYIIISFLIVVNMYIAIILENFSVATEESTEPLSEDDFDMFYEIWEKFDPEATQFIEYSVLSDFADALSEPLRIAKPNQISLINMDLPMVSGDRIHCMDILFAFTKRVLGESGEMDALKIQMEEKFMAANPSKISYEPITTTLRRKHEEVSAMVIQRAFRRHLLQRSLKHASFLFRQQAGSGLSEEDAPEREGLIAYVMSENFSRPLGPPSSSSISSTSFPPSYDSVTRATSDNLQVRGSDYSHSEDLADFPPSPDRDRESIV
# Method: as §1
# Results. Our studies were designed to evaluate PIP2-regulation for Nav1.5 channelopathies from multiple perspectives. Given that there is a lack of structural data to identify where, or how many PIP2 molecules bind to Nav1.5, we performed a docking simulation to identify putative PIP2 binding sites in the open, rat and human Nav1.5 cryoEM structures (PDB: 6UZ3 and 7DTC) (56-58). We observed four potential PIP2 binding sites at the boundary between the inner leaflet of the membrane and the cytoplasm with one at the interface between each voltage sensor and the channel body. In each case, we noted electrostatic and hydrogen bond interactions between the headgroup of PIP2 and multiple disease associated residues. […]
structure (smiles),measurement,setting,value
CCCCCCCC(=O)OC[C@H](COP(=O)(O)O[C@@H]1[C@H](O)[C@H](O)[C@@H](OP(=O)(O)O)[C@H](OP(=O)(O)O)[C@H]1O)OC(=O)CCCCCCC [diC8-PIP2],Kd,free GFP,> 800000 nM
same,binding of diC8-PIP2 to free GFP,free GFP; MST negative control,does not bind
same,Kd,"Nav1.5-R1644C; Kd of diC8-PIP2 for Nav1.5-R1644C, GFP-Nav1.5-R1644C, HEK293T lysate",345 nM and 445 nM
same,"affinity (Kd) of Nav1.5-R1644C relative to WT, fold lower",Nav1.5-R1644C,~8 fold and ~10 fold
same,"affinity (Kd) of Nav1.5-R1644C relative to WT, fold lower","Nav1.5-R1644C; listed as diC8PI(4,5)P2",almost ten-fold lower
